Assay results: US20050143362A1 (priority 2003, published 2005)

Tests used:
[1] = target: T1, progesterone receptors (Homo sapiens, UniProt P06401); details: Zurlo et al. 1990; cited from earlier work
T1 sequence (P06401 1-933): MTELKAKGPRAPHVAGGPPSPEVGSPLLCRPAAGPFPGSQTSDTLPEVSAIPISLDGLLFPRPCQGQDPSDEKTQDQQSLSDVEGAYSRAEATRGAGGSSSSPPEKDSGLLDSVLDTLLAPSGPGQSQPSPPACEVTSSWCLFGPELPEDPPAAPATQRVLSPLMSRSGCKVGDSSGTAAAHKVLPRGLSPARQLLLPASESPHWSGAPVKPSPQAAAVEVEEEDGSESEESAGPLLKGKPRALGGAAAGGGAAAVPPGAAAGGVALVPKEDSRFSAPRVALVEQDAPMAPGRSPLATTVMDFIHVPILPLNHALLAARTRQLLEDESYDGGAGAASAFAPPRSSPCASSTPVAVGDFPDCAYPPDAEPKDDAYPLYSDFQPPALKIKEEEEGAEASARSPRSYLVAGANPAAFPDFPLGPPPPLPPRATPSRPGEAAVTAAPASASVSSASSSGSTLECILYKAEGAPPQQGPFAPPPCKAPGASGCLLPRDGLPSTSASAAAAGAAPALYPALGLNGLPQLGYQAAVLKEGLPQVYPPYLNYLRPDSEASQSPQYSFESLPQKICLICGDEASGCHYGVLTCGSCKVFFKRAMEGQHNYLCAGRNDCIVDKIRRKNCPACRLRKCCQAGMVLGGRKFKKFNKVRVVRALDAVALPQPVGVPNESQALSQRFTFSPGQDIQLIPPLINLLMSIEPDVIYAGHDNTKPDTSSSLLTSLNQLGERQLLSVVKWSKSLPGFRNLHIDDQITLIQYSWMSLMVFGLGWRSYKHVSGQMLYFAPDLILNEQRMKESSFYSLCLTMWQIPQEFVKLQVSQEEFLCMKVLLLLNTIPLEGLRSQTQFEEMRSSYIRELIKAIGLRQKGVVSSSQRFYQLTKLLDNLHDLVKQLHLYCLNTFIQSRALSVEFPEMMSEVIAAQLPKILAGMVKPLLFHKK

[2] = test system: hypogonadism in the adult male; assay: Illustrative examples: danazol capsules given to hypogonadal adult men; assay type: in vivo; details: after one month
Source text: A person reports a lethargic and depressed mood. Blood tests show a hypogonadism in which total testosterone is borderline normal range but SHBG levels are higher than normal. Free testosterone levels are abnormally low and the patient is diagnosed as hypogonadal.
A person reports a general physical weakening and decreased libido. Blood tests show a high total testosterone level but SHBG levels are also in the very high range. Free testosterone levels are abnormally low and the patient is diagnosed as hypogonadal.

[3] = test system: serum gonadotropins; details: Gelfand et al. 1976; cited from earlier work
[4] = target: T2, sex hormone binding globulin (SHBG) (Homo sapiens, UniProt P04278); details: Pugeat et al. 1981; cited from earlier work
T2 sequence (P04278 30-402): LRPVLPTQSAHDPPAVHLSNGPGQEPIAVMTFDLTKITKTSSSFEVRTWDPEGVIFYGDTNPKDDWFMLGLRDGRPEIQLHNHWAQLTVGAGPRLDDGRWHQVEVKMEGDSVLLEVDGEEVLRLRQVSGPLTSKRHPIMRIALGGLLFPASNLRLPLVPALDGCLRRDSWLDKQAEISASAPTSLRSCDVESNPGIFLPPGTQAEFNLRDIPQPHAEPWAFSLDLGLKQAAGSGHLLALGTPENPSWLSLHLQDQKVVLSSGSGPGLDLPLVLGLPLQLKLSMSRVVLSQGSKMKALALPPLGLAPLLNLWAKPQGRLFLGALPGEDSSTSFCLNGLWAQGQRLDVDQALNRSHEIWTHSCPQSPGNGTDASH

[5] = cited from earlier work
[6] = Example 1: person, one 25 milligram capsule three times daily
[7] = Example 2: person, one 25 milligram capsule twice a day

C#C[C@]1(O)CC[C@H]2[C@@H]3CCC4=Cc5oncc5C[C@]4(C)[C@H]3CC[C@@]21C [danazol, 17α-pregn-4-en-20-yno[2,3-d]isoxazol-17-ol]
binding to progesterone receptors [1]: competitive binding
SHBG level (blood test) [2, 6]: remained stable
free testosterone (blood test) [2, 6]: increased
total testosterone level (blood test) [2, 6]: remained stable
vigor and mood reported by patient [2, 6]: greater vigor and an improved mood
SHBG level (blood test) [2, 7]: lower levels
free testosterone (blood test) [2, 7]: new higher level
libido reported by patient [2, 7]: increased libido
serum gonadotropins [3]: dose-dependent reduction
displacement of testosterone from SHBG [4]: competitive displacer of testosterone
androgenic potential ([5]; Gelfand et al. 1976): markedly attenuated
myogenic (anabolic) activity ([5]; Gelfand et al. 1976): mildly myogenic
androgen-like activity ([5]; Potts et al. 1980): weak
anabolic response ([5]; whole males, low dosages, Dmowski et al. 1971): increased and stable, long term anabolic response
